According to patent US8138189B2, “Substituted benzene compounds as modulators of the glucocorticoid receptor” (Hoffman-La Roche Inc., priority 2009, dated 2012):

Target: T1, full length human recombinant glucocorticoid receptor (Homo sapiens, UniProt P04150)
T1 construct: partially purified full length human recombinant glucocorticoid receptor; purchased Panvera/Invitrogen PV4302
T1 sequence (P04150 1-777): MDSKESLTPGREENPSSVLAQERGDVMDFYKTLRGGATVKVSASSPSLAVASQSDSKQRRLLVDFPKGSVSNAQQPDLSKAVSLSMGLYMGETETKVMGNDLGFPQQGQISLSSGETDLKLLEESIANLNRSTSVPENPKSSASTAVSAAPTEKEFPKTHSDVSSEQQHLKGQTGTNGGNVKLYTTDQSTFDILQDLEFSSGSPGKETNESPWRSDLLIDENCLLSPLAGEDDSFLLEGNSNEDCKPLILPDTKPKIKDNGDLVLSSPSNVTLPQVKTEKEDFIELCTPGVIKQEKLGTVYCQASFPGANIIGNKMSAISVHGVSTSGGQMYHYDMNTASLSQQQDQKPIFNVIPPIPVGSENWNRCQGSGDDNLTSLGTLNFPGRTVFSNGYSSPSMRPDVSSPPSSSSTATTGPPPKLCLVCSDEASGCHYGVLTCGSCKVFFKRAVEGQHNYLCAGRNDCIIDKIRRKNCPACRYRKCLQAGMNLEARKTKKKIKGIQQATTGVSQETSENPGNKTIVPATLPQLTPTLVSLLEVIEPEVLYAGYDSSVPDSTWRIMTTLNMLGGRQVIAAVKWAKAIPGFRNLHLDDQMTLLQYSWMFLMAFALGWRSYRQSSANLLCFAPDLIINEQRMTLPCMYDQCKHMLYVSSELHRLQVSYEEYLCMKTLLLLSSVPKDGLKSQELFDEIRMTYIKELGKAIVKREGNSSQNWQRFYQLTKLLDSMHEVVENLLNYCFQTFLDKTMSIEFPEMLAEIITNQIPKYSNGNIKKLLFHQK
Experiment: Glucocorticoid Receptor Binding Assay (fluorescence polarization competitor assay, Fluormone GS Far Red tracer)
Outline: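 Partially purified full-length recombinant human GR with a stabilizing coactivator peptide was incubated with Fluormone GS Far Red tracer and serially diluted compound for 3 h at 22 °C in the dark, pH 7.4. Fluorescence polarization was read at 610-660 nm. IC50 came from sigmoidal fitting, and Ki from Cheng-Prusoff.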

| Ki [nM] | Structure (SMILES) |
| --- | --- |
| 64.5 | C[C@H](c1ccc(Oc2ccc(C(=O)O)c(Cl)c2)cc1Cl)[C@@](O)(c1ccc2nccnc2c1)C(F)(F)F (stereo in doubt) [Example 228, 2-Chloro-4-[3-chloro-4-(3,3,3-trifluoro-2-hydroxy-1-methyl-2-quinoxalin-6-yl-propyl)-phenoxy]-benzoic acid] |
| 24.9 | C[C@H](c1ccc(-c2ccc(C(=O)O)c(F)c2)cc1Cl)[C@@](O)(c1ccc(C#N)n1C)C(F)(F)F (stereo in doubt) [Example 230, 3′-Chloro-4′-[2-(5-cyano-1-methyl-1H-pyrrol-2-yl)-3,3,3-trifluoro-2-hydroxy-1-methyl-propyl]-3-fluoro-biphenyl-4-carboxylic acid] |
| 3.9 | C[C@H](c1ccc(Oc2ncc(C(=O)O)cc2Cl)cc1Cl)[C@@](O)(c1ccc(C#N)n1C)C(F)(F)F (stereo in doubt) [Example 233, 5-Chloro-6-{3-chloro-4-[2-(5-cyano-1-methyl-1H-pyrrol-2-yl)-3,3,3-trifluoro-2-hydroxy-1-methyl-propyl]-phenoxy}-nicotinic acid] |
| 1.3 | Cc1cc([C@](O)([C@H](C)c2ccc(Oc3ncc(C(=O)O)cc3Cl)cc2Cl)C(F)(F)F)sc1C#N (stereo in doubt) [Example 234, 5-Chloro-6-{3-chloro-4-[2-(5-cyano-4-methyl-thiophen-2-yl)-3,3,3-trifluoro-2-hydroxy-1-methyl-propyl]-phenoxy}-nicotinic acid] |
| 22.3 | C[C@H](c1ccc(Oc2ccc(C(=O)O)cn2)cc1Cl)[C@@](O)(c1ccc(C#N)n1C)C(F)(F)F (stereo in doubt) [Example 236, 6-{3-Chloro-4-[2-(5-cyano-1-methyl-1H-pyrrol-2-yl)-3,3,3-trifluoro-2-hydroxy-1-methyl-propyl]-phenoxy}-nicotinic acid] |
| 112 | C[C@H](c1ccc(Oc2cnc(C(=O)O)cn2)c(Cl)c1Cl)[C@@](O)(c1ccc(=O)n(C)c1)C(F)(F)F (stereo in doubt) [Example 238, 5-{2,3-Dichloro-4-[3,3,3-trifluoro-2-hydroxy-1-methyl-2-(1-methyl-6-oxo-1,6-dihydro-pyridin-3-yl)-propyl]-phenoxy}-pyrazine-2-carboxylic acid] |
| 3 | COC(=O)c1cnc(Oc2ccc([C@H](C)[C@](O)(c3cc(C)c(=O)n(C)c3)C(F)(F)F)c(Cl)c2)c(Cl)c1 (stereo in doubt) [Example 250, 5-Chloro-6-{3-chloro-4-[2-(1,5-dimethyl-6-oxo-1,6-dihydro-pyridin-3-yl)-3,3,3-trifluoro-2-hydroxy-1-methyl-propyl]-phenoxy}-nicotinic acid methyl ester] |
| 0.5 | Cc1cc([C@@](O)([C@@H](C)c2ccc(Oc3ncc(C(=O)O)cc3Cl)cc2Cl)C(F)(F)F)cn(C)c1=O (stereo in doubt) [Example 251, 5-Chloro-6-{3-chloro-4-[2-(1,5-dimethyl-6-oxo-1,6-dihydro-pyridin-3-yl)-3,3,3-trifluoro-2-hydroxy-1-methyl-propyl]-phenoxy}-nicotinic acid] |
| 52.7 | COC(=O)c1cccc(COc2ccc(C(C)C(O)(c3cnc(C)cn3)C(F)(F)F)c(Cl)c2)c1 (stereo not shown) [Example 3, 3-{3-Chloro-4-[3,3,3-trifluoro-2-hydroxy-1-methyl-2-(5-methyl-pyrazin-2-yl)-propyl]-phenoxymethyl}-benzoic acid methyl ester] |
| 175 | Cc1cnc(C(O)(C(C)c2ccc(OCc3cccc(C(=O)O)c3)cc2Cl)C(F)(F)F)cn1 (stereo not shown) [Example 4, 3-{3-Chloro-4-[3,3,3-trifluoro-2-hydroxy-1-methyl-2-(5-methyl-pyrazin-2-yl)-propyl]-phenoxymethyl}-benzoic acid] |
| 418 | CCOC(=O)c1ccc(COc2ccc([C@@H](C)[C@@](O)(c3cnc(C)cn3)C(F)(F)F)c(Cl)c2)cc1 [Example 5, 4-{3-Chloro-4-[(1R,2R)-3,3,3-trifluoro-2-hydroxy-1-methyl-2-(5-methyl-pyrazin-2-yl)-propyl]-phenoxymethyl}-benzoic acid ethyl ester] |
| 11.2 | Cc1cc(C(O)(C(C)c2ccc(Oc3cccc(C(=O)O)c3)cc2Cl)C(F)(F)F)ccn1 (stereo not shown) [Example 59, 3-{3-Chloro-4-[3,3,3-trifluoro-2-hydroxy-1-methyl-2-(2-methyl-pyridin-4-yl)-propyl]-phenoxy}-benzoic acid] |
| 4.9 | Cc1cc(C(O)(C(C)c2ccc(-c3cccc(C(=O)O)c3)cc2Cl)C(F)(F)F)ccn1 (stereo not shown) [Example 61, 3′-Chloro-4′-[3,3,3-trifluoro-2-hydroxy-1-methyl-2-(2-methyl-pyridin-4-yl)-propyl]-biphenyl-3-carboxylic acid] |

Second part, the compound before the results:

| Structure (SMILES) | Ki [nM] |
| --- | --- |
| C[C@H](c1ccc(Oc2ccc(C(=O)O)c(Cl)c2)cc1Cl)[C@@](O)(c1ccc(C#N)n1C)C(F)(F)F (stereo in doubt) [Example 232, 2-Chloro-4-{3-chloro-4-[2-(5-cyano-1-methyl-1H-pyrrol-2-yl)-3,3,3-trifluoro-2-hydroxy-1-methyl-propyl]-phenoxy}-benzoic acid] | 14.6 |
| C[C@@H](c1ccc(OC(C)(C)C(=O)O)c(Cl)c1Cl)[C@](O)(c1ccc(=O)n(C)c1)C(F)(F)F (stereo in doubt) [Example 240, 2-{2,3-Dichloro-4-[3,3,3-trifluoro-2-hydroxy-1-methyl-2-(1-methyl-6-oxo-1,6-dihydro-pyridin-3-yl)-propyl]-phenoxy}-2-methyl-propionic acid] | 82.2 |
| COC(=O)c1cnc(Oc2ccc([C@H](C)[C@](O)(c3cc(C)c(=O)n(C)c3)C(F)(F)F)c(Cl)c2)nc1C(F)(F)F (stereo in doubt) [Example 242, 2-{3-Chloro-4-[2-(1,5-dimethyl-6-oxo-1,6-dihydro-pyridin-3-yl)-3,3,3-trifluoro-2-hydroxy-1-methyl-propyl]-phenoxy}-4-trifluoromethyl-pyrimidine-5-carboxylic acid methyl ester] | 2.7 |
| Cc1cc([C@@](O)([C@@H](C)c2ccc(Oc3ncc(C(=O)O)c(C(F)(F)F)n3)cc2Cl)C(F)(F)F)cn(C)c1=O (stereo in doubt) [Example 243, 2-{3-Chloro-4-[2-(1,5-dimethyl-6-oxo-1,6-dihydro-pyridin-3-yl)-3,3,3-trifluoro-2-hydroxy-1-methyl-propyl]-phenoxy}-4-trifluoromethyl-pyrimidine-5-carboxylic acid] | 1.8 |
| Cc1cc([C@@](O)([C@@H](C)c2ccc(Oc3ncc(C(=O)O)cn3)cc2Cl)C(F)(F)F)cn(C)c1=O (stereo in doubt) [Example 254, 2-{3-Chloro-4-[2-(1,5-dimethyl-6-oxo-1,6-dihydro-pyridin-3-yl)-3,3,3-trifluoro-2-hydroxy-1-methyl-propyl]-phenoxy}-pyrimidine-5-carboxylic acid] | 9.5 |
| Cc1nc(Oc2ccc([C@H](C)[C@](O)(c3cc(C)c(=O)n(C)c3)C(F)(F)F)c(Cl)c2)ccc1C(=O)O (stereo in doubt) [Example 255, 6-{3-Chloro-4-[2-(1,5-dimethyl-6-oxo-1,6-dihydro-pyridin-3-yl)-3,3,3-trifluoro-2-hydroxy-1-methyl-propyl]-phenoxy}-2-methyl-nicotinic acid] | 3.6 |
| Cc1cnc(C(O)(C(C)c2ccc(OCc3ccc(C(=O)O)cc3)cc2Cl)C(F)(F)F)cn1 (stereo not shown) [Example 2, 4-{3-Chloro-4-[3,3,3-trifluoro-2-hydroxy-1-methyl-2-(5-methyl-pyrazin-2-yl)-propyl]-phenoxymethyl}-benzoic acid] | 21.5 |
| Cc1cnc([C@](O)([C@H](C)c2ccc(OCc3ccc(C(=O)O)cc3)cc2Cl)C(F)(F)F)cn1 [Example 6, 4-{3-Chloro-4-[(1R,2R)-3,3,3-trifluoro-2-hydroxy-1-methyl-2-(5-methyl-pyrazin-2-yl)-propyl]-phenoxymethyl}-benzoic acid] | 8.2 |
| COC(=O)c1ccc(OCCOc2ccc(C(C)C(O)(c3cnc(C)cn3)C(F)(F)F)c(Cl)c2)cc1 (stereo not shown) [Example 9, 4-(2-{3-Chloro-4-[3,3,3-trifluoro-2-hydroxy-1-methyl-2-(5-methyl-pyrazin-2-yl)-propyl]-phenoxy}-ethoxy)-benzoic acid methyl ester] | 119 |
| Cc1cnc(C(O)(C(C)c2ccc(OCCOc3ccc(C(=O)O)cc3)cc2Cl)C(F)(F)F)cn1 (stereo not shown) [Example 10, 4-(2-{3-Chloro-4-[3,3,3-trifluoro-2-hydroxy-1-methyl-2-(5-methyl-pyrazin-2-yl)-propyl]-phenoxy}-ethoxy)-benzoic acid] | 307 |
| Cc1cc(C(O)(C(C)c2ccc(Oc3ccc(C(=O)O)cc3)cc2Cl)C(F)(F)F)ccn1 (stereo not shown) [Example 58, 4-{3-Chloro-4-[3,3,3-trifluoro-2-hydroxy-1-methyl-2-(2-methyl-pyridin-4-yl)-propyl]-phenoxy}-benzoic acid] | 2.4 |
| Cc1cc(C(O)(C(C)c2ccc(-c3ccc(C(=O)O)cn3)cc2Cl)C(F)(F)F)ccn1 (stereo not shown) [Example 62, 6-{3-Chloro-4-[3,3,3-trifluoro-2-hydroxy-1-methyl-2-(2-methyl-pyridin-4-yl)-propyl]-phenyl}-nicotinic acid] | 335 |
